Measurements: PubChem BioAssay (NCI)
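48-hour exposure; five concentrations; linearly interpolated endpoints. At the GI50, growth is halved. TGI denotes the concentration required for complete inhibition of growth.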

How the values were obtained:
Assay in all cases: inhibition of tumour cell growth, NCI panel, 48 h
[1] = test system: 786-0 renal
[2] = test system: A498 renal
[3] = test system: A549 NSCLC
[4] = test system: ACHN renal
[5] = test system: BT-549 breast
[6] = test system: CAKI-1 renal
[7] = test system: CCRF-CEM leukemia
[8] = test system: COLO 205 colon
[9] = test system: DU-145 prostate
[10] = test system: EKVX NSCLC
[11] = test system: HCC-2998 colon
[12] = test system: HCT-116 colon
[13] = test system: HCT-15 colon
[14] = test system: HL-60(TB) leukemia
[15] = test system: HOP-62 NSCLC
[16] = test system: HOP-92 NSCLC
[17] = test system: HS 578T breast
[18] = test system: HT29 colon
[19] = test system: IGROV1 ovarian
[20] = test system: K-562 leukemia
[21] = test system: KM12 colon
[22] = test system: LOX IMVI melanoma
[23] = test system: M14 melanoma
[24] = test system: MALME-3M melanoma
[25] = test system: MCF7 breast
[26] = test system: MDA-MB-231 breast
[27] = test system: MDA-MB-435
[28] = test system: MOLT-4 leukemia
[29] = test system: NCI-H226 lung
[30] = test system: NCI-H23 lung
[31] = test system: NCI-H460 lung
[32] = test system: NCI-H522 lung
[33] = test system: NCI/ADR-RES ovarian
[34] = test system: OVCAR-3 ovarian
[35] = test system: OVCAR-4 ovarian
[36] = test system: OVCAR-5 ovarian
[37] = test system: OVCAR-8 ovarian
[38] = test system: PC-3 prostate
[39] = test system: RPMI-8226 leukemia
[40] = test system: RXF 393 renal
[41] = test system: SF-268 CNS
[42] = test system: SF-295 CNS
[43] = test system: SF-539 CNS
[44] = test system: SK-MEL-2 melanoma
[45] = test system: SK-MEL-28 melanoma
[46] = test system: SK-MEL-5 melanoma
[47] = test system: SK-OV-3 ovarian
[48] = test system: SN12C renal
[49] = test system: SNB-19 CNS
[50] = test system: SNB-75 CNS
[51] = test system: SR leukemia
[52] = test system: SW-620 colon
[53] = test system: T-47D breast
[54] = test system: TK-10 renal
[55] = test system: U251 CNS
[56] = test system: UACC-257 melanoma
[57] = test system: UACC-62 melanoma
[58] = test system: UO-31 renal

SMILES: Cc1ccc(C(=NN=C(N)N)c2ccc(C)cc2)cc1
- GI50 [1]: 623 nM
- TGI [1]: 2860 nM
- GI50 [2]: 395 nM
- TGI [2]: 2610 nM
- GI50 [3]: 451 nM
- TGI [3]: 7090 nM
- GI50 [4]: 1100 nM
- TGI [4]: 7400 nM
- GI50 [5]: 2210 nM
- TGI [5]: 8690 nM
- GI50 [6]: 608 nM
- TGI [6]: 5930 nM
- GI50 [7]: 559 nM
- TGI [7]: 12200 nM
- GI50 [8]: 445 nM
- TGI [8]: 1410 nM
- GI50 [9]: 313 nM
- TGI [9]: 1160 nM
- GI50 [10]: 700 nM
- TGI [10]: 16600 nM
- GI50 [11]: 683 nM
- TGI [11]: 1930 nM
- GI50 [12]: 372 nM
- TGI [12]: 4480 nM
- GI50 [13]: 773 nM
- TGI [13]: 8860 nM
- GI50 [14]: 214 nM
- TGI [14]: 685 nM
- GI50 [15]: 1210 nM
- TGI [15]: 12500 nM
- GI50 [16]: 990 nM
- TGI [16]: 5960 nM
- GI50 [17]: 424 nM
- TGI [17]: 3690 nM
- GI50 [18]: 316 nM
- TGI [18]: 1170 nM
- GI50 [19]: 644 nM
- TGI [19]: 7640 nM
- GI50 [20]: 271 nM
- TGI [20]: 1550 nM
- GI50 [21]: 327 nM
- TGI [21]: 1330 nM
- GI50 [22]: 587 nM
- TGI [22]: 3380 nM
- GI50 [23]: 415 nM
- TGI [23]: 2150 nM
- GI50 [24]: 388 nM
- TGI [24]: 1910 nM
- GI50 [25]: 396 nM
- TGI [25]: 8530 nM
- GI50 [26]: 926 nM
- TGI [26]: 4360 nM
- GI50 [27]: 199 nM
- TGI [27]: 471 nM
- GI50 [28]: 520 nM
- TGI [28]: 4450 nM
- GI50 [29]: 1690 nM
- TGI [29]: 10900 nM
- GI50 [30]: 980 nM
- TGI [30]: 8660 nM
- GI50 [31]: 359 nM
- TGI [31]: 1330 nM
- GI50 [32]: 335 nM
- TGI [32]: 1190 nM
- GI50 [33]: 1850 nM
- TGI [33]: 5590 nM
- GI50 [34]: 240 nM
- TGI [34]: 568 nM
- GI50 [35]: 1700 nM
- TGI [35]: 13800 nM
- GI50 [36]: 1850 nM
- TGI [36]: 13800 nM
- GI50 [37]: 773 nM
- TGI [37]: 3590 nM
- GI50 [38]: 457 nM
- TGI [38]: 10500 nM
- GI50 [39]: 1070 nM
- TGI [39]: 4870 nM
- GI50 [40]: 509 nM
- TGI [40]: 1730 nM
- GI50 [41]: 636 nM
- TGI [41]: 6570 nM
- GI50 [42]: 284 nM
- TGI [42]: 945 nM
- GI50 [43]: 2100 nM
- TGI [43]: 6990 nM
- GI50 [44]: 780 nM
- TGI [44]: 2940 nM
- GI50 [45]: 2200 nM
- TGI [45]: 6700 nM
- GI50 [46]: 427 nM
- TGI [46]: 1500 nM
- GI50 [47]: 1160 nM
- TGI [47]: 10200 nM
- GI50 [48]: 1070 nM
- TGI [48]: 11600 nM
- GI50 [49]: 2230 nM
- TGI [49]: 18400 nM
- GI50 [50]: 845 nM
- TGI [50]: 16700 nM
- GI50 [51]: 235 nM
- TGI [51]: 1690 nM
- GI50 [52]: 379 nM
- TGI [52]: 1660 nM
- GI50 [53]: 869 nM
- TGI [53]: 10900 nM
- GI50 [54]: 876 nM
- TGI [54]: 11400 nM
- GI50 [55]: 399 nM
- TGI [55]: 1830 nM
- GI50 [56]: 498 nM
- TGI [56]: 2070 nM
- GI50 [57]: 902 nM
- TGI [57]: 6040 nM
- GI50 [58]: 1730 nM
- TGI [58]: 9760 nM
